Laboratory results as given in ChEMBL document CHEMBL1153751, “Biologically active tetranorditerpenoids from the fungus Sclerotinia homoeocarpa causal agent of dollar spot in turfgrass” (J Nat Prod, 2009).
≈ marks a conversion by molar mass, not a printed value. Calls of active or inactive are those of the source. No cut-off for these calls is given here.

Experiments:
Agrostis stolonifera [1] = assay: Phytotoxicity against Agrostis stolonifera at 1 mg/ml; type: functional, organism-based
Agrostis stolonifera [2] = assay: Phytotoxicity against Agrostis stolonifera at 0.001 mg/ml; type: functional, organism-based
[3] = Cytotoxicity against pig LLC-PK11 cells after 48 hrs by neutral red dye staining; type: functional, cell-based; conditions: Sus scrofa, LLC-PK11, 48 h
Lactuca sativa [4] = assay: Phytotoxicity against Lactuca sativa at 0.001 mg/ml; type: functional, organism-based
SK-MEL [5] = assay: Cytotoxicity against human SK-MEL cells after 48 hrs by neutral red dye staining; type: functional, cell-based
Agrostis stolonifera [6] = assay: Phytotoxicity against Agrostis stolonifera at 0.1 mg/ml; type: functional, organism-based
Lactuca sativa [7] = assay: Phytotoxicity against Lactuca sativa at 1 mg/ml; type: functional, organism-based
BT-549 [8] = assay: Cytotoxicity against human BT549 cells after 48 hrs by neutral red dye staining; type: functional, cell-based; conditions: BT-549, 48 h
Lactuca sativa [9] = assay: Phytotoxicity against Lactuca sativa at 0.1 mg/ml; type: functional, organism-based
SK-OV-3 [10] = assay: Cytotoxicity against human SKOV3 cells after 48 hrs by neutral red dye staining; type: functional, cell-based; conditions: SK-OV-3, 48 h
Lemna aequinoctialis = assay: Phytotoxicity against Lemna paucicostata after 7 days; type: functional, organism-based; conditions: 168 h, read-out: I50
Plasmodium falciparum [11] = assay: microbe, parasite or virus in culture; conditions: D6, 72 h
KB [12] = assay: Cytotoxicity against human KB cells after 48 hrs by neutral red dye staining; type: functional, cell-based
Vero [13] = assay: Cytotoxicity against african green monkey Vero cells after 48 hrs by neutral red dye staining; type: cell-based; conditions: Chlorocebus sabaeus
Plasmodium falciparum [14] = assay: microbe, parasite or virus in culture; conditions: W2, 72 h
Lactuca sativa [15] = assay: Phytotoxicity against Lactuca sativa at 0.01 mg/ml; type: functional, organism-based
Vero [16] = assay: Cytotoxicity against african green monkey Vero cells at 4760 ng/ml after 48 hrs by neutral red dye staining; type: cell-based; conditions: Chlorocebus sabaeus
Plasmodium falciparum [17] = assay: Antiplasmodial activity against chloroquine-resistant Plasmodium falciparum W2 assessed as LDH activity at 4760 ng/ml after 72 hrs by malstat reagent method; type: functional, organism-based
KB [18] = assay: Cytotoxicity against human KB cells at 10 ug/ml after 48 hrs by neutral red dye staining; type: functional, cell-based
Agrostis stolonifera [19] = assay: Phytotoxicity against Agrostis stolonifera at 0.01 mg/ml; type: functional, organism-based
BT-549 [20] = assay: Cytotoxicity against human BT549 cells at 10 ug/ml after 48 hrs by neutral red dye staining; type: functional, cell-based
SK-MEL [21] = assay: Cytotoxicity against human SK-MEL cells at 10 ug/ml after 48 hrs by neutral red dye staining; type: functional, cell-based
SK-OV-3 [22] = assay: Cytotoxicity against human SKOV3 cells at 10 ug/ml after 48 hrs by neutral red dye staining; type: functional, cell-based
Plasmodium falciparum [23] = assay: Antiplasmodial activity against chloroquine-sensitive Plasmodium falciparum D6 assessed as LDH activity at 4760 ng/ml after 72 hrs by malstat reagent method; type: functional, organism-based
[24] = Cytotoxicity against pig LLC-PK11 cells at 10 ug/ml after 48 hrs by neutral red dye staining; type: functional, cell-based, Sus scrofa

SMILES | Activity (Agrostis stolonifera [1]) | Activity (Agrostis stolonifera [2]) | IC50 [3] | Activity (Lactuca sativa [4]) | IC50 (SK-MEL [5]) | Activity (Agrostis stolonifera [6]) | Activity (Lactuca sativa [7]) | IC50 (BT-549 [8]) | Activity (Lactuca sativa [9]) | IC50 (SK-OV-3 [10]) | IC50 (Lemna aequinoctialis) | IC50 (Plasmodium falciparum [11]) | IC50 (KB [12]) | IC50 (Vero [13]) | IC50 (Plasmodium falciparum [14]) | Activity (Lactuca sativa [15]) | inhibition (INH) (Vero [16]) | inhibition (KB [18]) | inhibition (SK-OV-3 [22]) | further results
C[C@@]12CCC[C@]3(C)C4=CC(=O)OCC4=C[C@@H](OC1=O)C23 (some centres not stated) | Active | inactive | 5.4 µg/mL (≈ 19.7 µM) | inactive | 1.1 µg/mL (≈ 4.01 µM) | Active | Active | > 10 µg/mL | Active | > 10 µg/mL | 950 nM | 0.3 µg/mL (≈ 1.09 µM) | 4.2 µg/mL (≈ 15.3 µM) | 3.7 µg/mL (≈ 13.5 µM) | – | – | – | – | – | –
C[C@@]12CC[C@@H](O)[C@]3(C)C4=CC(=O)OCC4=C[C@@H](OC1=O)C23 (some centres not stated) | Active | inactive | > 10 µg/mL | inactive | 3.3 µg/mL (≈ 11.4 µM) | Active | Active | > 10 µg/mL | Active | > 10 µg/mL | 547000 nM | – | > 10 µg/mL | 4.76 µg/mL (≈ 16.4 µM) | – | – | – | – | – | –
C[C@]12C=C[C@H](O)[C@]3(C)C(=O)O[C@@H](C13)[C@H]1O[C@]13COC(=O)C=C32 (some centres not stated) | Active | – | 2.8 µg/mL (≈ 9.2 µM) | – | 0.58 µg/mL (≈ 1.91 µM) | Active | Active | 4.8 µg/mL (≈ 15.8 µM) | Active | 8 µg/mL (≈ 26.3 µM) | 390 nM | 0.75 µg/mL (≈ 2.46 µM) | 4.4 µg/mL (≈ 14.5 µM) | 1.5 µg/mL (≈ 4.93 µM) | 0.6 µg/mL (≈ 1.97 µM) | Active | – | – | – | –
C[C@@H]1CC[C@H]2[C@@H](C)C(=O)O[C@@H]3O[C@@]4(C)CC[C@@H]1[C@]32OO4 [ARTEMISININ] | – | – | – | – | – | – | – | – | – | – | – | 0.0047 µg/mL (≈ 0.0166 µM) | – | – | 0.0038 µg/mL (≈ 0.0135 µM) | – | Not Active | – | – | –
C[C@@]12C[C@@H](O)C[C@]3(C)C4=CC(=O)OCC4=C[C@@H](OC1=O)C23 (some centres not stated) | Active | – | 1.2 µg/mL (≈ 4.13 µM) | – | 0.41 µg/mL (≈ 1.41 µM) | Active | Active | 4.7 µg/mL (≈ 16.2 µM) | Active | 3.2 µg/mL (≈ 11 µM) | 9090 nM | – | 2.1 µg/mL (≈ 7.23 µM) | 1 µg/mL (≈ 3.44 µM) | – | – | – | – | – | –
C[C@]12CC[C@@H](O)[C@]3(C)C(=O)O[C@@H](C13)[C@H]1O[C@]13COC(=O)C=C32 (some centres not stated) | Active | inactive | – | inactive | – | – | Active | – | – | – | – | – | – | – | – | inactive | Not Active | inactive | inactive | inhibition (Plasmodium falciparum [17]): inactive; Activity (Agrostis stolonifera [19]): inactive; inhibition (BT-549 [20]): inactive; inhibition (SK-MEL [21]): inactive; inhibition (Plasmodium falciparum [23]): inactive; Cytotoxicity at 10 ug/ml [24]: Not Active
C[C@@]12CC[C@@H](O)[C@]3(C)C4=CC(=O)OC[C@]45O[C@@H]5[C@@H](OC1=O)C23 (some centres not stated) | Active | inactive | – | – | 10 µg/mL (≈ 32.6 µM) | Active | Active | – | Active | – | 6420 nM | – | – | – | – | – | Not Active | inactive | inactive | inhibition (Plasmodium falciparum [17]): inactive; inhibition (BT-549 [20]): inactive; inhibition (Plasmodium falciparum [23]): inactive; Cytotoxicity at 10 ug/ml [24]: Not Active
C=C1C(O)CC2[C@](C)(CCC[C@]2(C)C(=O)O)C1CC(=O)O (some centres not stated) | inactive | inactive | – | inactive | – | inactive | – | – | inactive | – | – | – | – | – | – | inactive | Not Active | inactive | inactive | inhibition (Plasmodium falciparum [17]): inactive; Activity (Agrostis stolonifera [19]): inactive; inhibition (BT-549 [20]): inactive; inhibition (SK-MEL [21]): inactive; inhibition (Plasmodium falciparum [23]): inactive; Cytotoxicity at 10 ug/ml [24]: Not Active
C[C@@]12C=C[C@H](O)[C@]3(C)C(=O)O[C@H](C=C4COC(=O)C=C41)C23 (some centres not stated) | Active | inactive | 1.1 µg/mL (≈ 3.82 µM) | inactive | 0.12 µg/mL (≈ 0.416 µM) | Active | Active | 1.2 µg/mL (≈ 4.16 µM) | Active | 1.1 µg/mL (≈ 3.82 µM) | 790 nM | – | 0.6 µg/mL (≈ 2.08 µM) | 0.95 µg/mL (≈ 3.3 µM) | 0.032 µg/mL (≈ 0.111 µM) | Active | – | – | – | –
CCN(CC)CCCC(C)Nc1ccnc2cc(Cl)ccc12 (configuration not stated) [CHLOROQUINE] | – | – | – | – | – | – | – | – | – | – | – | – | – | – | – | – | Not Active | – | – | –
C[C@@]12C=CC[C@]3(C)C(=O)O[C@H](C=C4COC(=O)C=C41)C23 (some centres not stated) | Active | inactive | 10 µg/mL (≈ 36.7 µM) | inactive | 2.3 µg/mL (≈ 8.45 µM) | Active | Active | 9.6 µg/mL (≈ 35.3 µM) | Active | 6 µg/mL (≈ 22 µM) | 730 nM | – | 4.3 µg/mL (≈ 15.8 µM) | 3 µg/mL (≈ 11 µM) | 0.13 µg/mL (≈ 0.477 µM) | – | – | – | – | –
C[C@@]12C[C@@H](O)C[C@]3(C)C4=CC(=O)OC[C@]45O[C@@H]5[C@@H](OC1=O)C23 (some centres not stated) | Active | inactive | 4.2 µg/mL (≈ 13.7 µM) | inactive | 1.1 µg/mL (≈ 3.59 µM) | Active | Active | 10 µg/mL (≈ 32.6 µM) | Active | 10 µg/mL (≈ 32.6 µM) | 3320 nM | 0.74 µg/mL (≈ 2.42 µM) | 6.8 µg/mL (≈ 22.2 µM) | 3.3 µg/mL (≈ 10.8 µM) | – | – | – | – | – | –
C[C@@]12CC[C@@H](O)[C@]3(C)C(=O)O[C@H](C=C4COC(=O)C=C41)C23 (some centres not stated) | Active | inactive | – | inactive | – | – | Active | – | – | – | – | – | – | – | – | inactive | Not Active | inactive | inactive | inhibition (Plasmodium falciparum [17]): inactive; Activity (Agrostis stolonifera [19]): inactive; inhibition (BT-549 [20]): inactive; inhibition (SK-MEL [21]): inactive; inhibition (Plasmodium falciparum [23]): inactive; Cytotoxicity at 10 ug/ml [24]: Not Active
C[C@]12C=CC[C@]3(C)C(=O)O[C@@H](C13)[C@H]1O[C@]13COC(=O)C=C32 (some centres not stated) | Active | – | > 10 µg/mL | inactive | 2.8 µg/mL (≈ 9.71 µM) | Active | Active | > 10 µg/mL | Active | – | 650 nM | 2.3 µg/mL (≈ 7.98 µM) | – | – | 2.3 µg/mL (≈ 7.98 µM) | – | Not Active | inactive | inactive | –
C[C@]12CCC[C@](C)(C(=O)O)[C@@H]1C=C[C@]1(O)COC(=O)C[C@H]21 [OIDIOLACTONE E] | Active | inactive | 4.8 µg/mL (≈ 16.3 µM) | inactive | 0.72 µg/mL (≈ 2.45 µM) | – | Active | 9 µg/mL (≈ 30.6 µM) | – | 6.3 µg/mL (≈ 21.4 µM) | – | 0.25 µg/mL (≈ 0.849 µM) | 4.5 µg/mL (≈ 15.3 µM) | 1.7 µg/mL (≈ 5.78 µM) | 0.19 µg/mL (≈ 0.645 µM) | – | – | – | – | –
